# From US20240245649A1, “Method and Composition for Mimicking Caloric Restriction by Administration of Ergothioneine” (NANJING NUTRABUILDING BIO-TECH CO., LTD., priority 2021, published 2024)
# Key:
# high-fat diet (HFD) mice [1] = assay: Blood LDL and HDL in high-fat diet mice supplemented with Ergothioneine; assay type: in vivo
# Description: (§1) Mice group were named after the diet they consumed. Group A mice was fed ad libitum (control), and group B mice was on high-fat diet (HFD), Group C was fed restricted amount of the HFD diet to achieve caloric restriction (HFD+CR), and Group D was fed high-fat diet and supplemented with Ergothioneine (HFD+EGT), the concentration of Ergothioneine is 3.25 mg/kg. All groups of mice were housed individually, and fed for months of interventions and had free access to water. Health status was monitored during the intervention. At the end of each intervention, body composition, insulin sensitivity, blood glucose level, different blood parameters and lifespan of the mice were studied. After treatment, blood is taken to measure high-density lipoprotein (HDL), low-density lipoprotein (LDL) and HOmeostasis Model Assessment-Insulin Resistance (HOMA-IR). The HOMA-IR index was calculated using the following formula: HOMA-IR=[fasting glucose levels (mmol/L)]×[fasting serum insulin (mU/L)]/22.5. At the end of the experiment, AKT and phospho-AKT (Ser473) protein levels in skeletal muscle after 2 IU/kg insulin stimulation for 15 min were determined by immunoblotting (n=3-6). The concentrations of inflammatory cytokines including tumor necrosis factor-α (TNF-α) and interleukin (IL)-6, and oxidative stress markers including malonaldehyde (MDA) and superoxide dismutase (SOD) were detected by ELISA kits.
# high-fat diet (HFD) mice [2] = assay: HOMA-IR (fasting glucose x fasting serum insulin /22.5) in high-fat diet mice; assay type: in vivo
# Description: as §1
# [3] = system: AKT and phospho-AKT (Ser473); assay: AKT and phospho-AKT (Ser473) protein levels in skeletal muscle after insulin stimulation, immunoblotting; assay type: in vivo, mice
# Description: as §1
# [4] = system: tumor necrosis factor-α (TNF-α) and interleukin (IL)-6; assay: Inflammatory cytokines TNF-α and IL-6 by ELISA kits in high-fat diet mice; assay type: in vivo
# Description: as §1
# [5] = system: malonaldehyde (MDA) and superoxide dismutase (SOD); assay: Oxidative stress markers MDA and SOD by ELISA kits in high-fat diet mice; assay type: in vivo
# Description: as §1
# [6] = animals and humans, even at high doses; cited from earlier work
smiles,measurement,setting,value
C[N+](C)(C)[C@@H](Cc1c[nH]c(=S)[nH]1)C(=O)[O-] [Ergothioneine],level of LDL,"high-fat diet (HFD) mice [1]; HFD+EGT (Group D), Ergothioneine 3.25 mg/kg, vs HFD group, FIG. 1",significantly decreased
same,level of HDL,"high-fat diet (HFD) mice [1]; HFD+EGT (Group D), Ergothioneine 3.25 mg/kg, vs HFD group, FIG. 2",significantly increased
same,LDL level decreased by Ergothioneine to,"high-fat diet (HFD) mice [1]; broadest of the nested bounds printed (24, 22, 20, 18, 15)",≤ 24 mg/dL
same,HDL level increased by Ergothioneine to,"high-fat diet (HFD) mice [1]; broadest of the nested bounds printed (40, 42, 44, 46, 48, 50)",≥ 40 mg/dL
same,HOMA-IR,"high-fat diet (HFD) mice [2]; HFD+EGT group vs HFD group, FIG. 3",lower HOMA-IR than HFD group
same,HOMA-IR decreased by Ergothioneine to,"high-fat diet (HFD) mice [2]; broadest of the nested bounds printed (28, 26, 24, 22, 20, 15)",≤ 28
same,p-AKT/AKT increased by Ergothioneine to,"[3]; broadest of the nested bounds printed (0.25, 0.35, 0.40, 0.45, 0.53, 0.60)",≥ 0.25
same,insulin-stimulated AKT phosphorylation (p-AKT)/AKT relative protein expression,"[3]; skeletal muscle, 2 IU/kg insulin for 15 min, HFD+EGT vs HFD group, FIG. 4",higher than HFD group
same,content of TNF-α,"[4]; HFD+EGT group compared with HFD group, FIG. 5",remarkably decreased
same,content of IL-6,"[4]; HFD+EGT group compared with HFD group, FIG. 6",remarkably decreased
same,level of IL-6 decreased by Ergothioneine to,"[4]; broadest of the nested bounds printed (38, 35, 30, 28, 26, 22)",≤ 38 pg/mL
same,level of TNF-α decreased by Ergothioneine to,"[4]; broadest of the nested bounds printed (40, 38, 35, 32, 30, 28, 26)",≤ 40 pg/mL
same,MDA expression,"[5]; EGT compared with HFD group, FIG. 7",reduction of MDA expression
same,SOD expression,"[5]; EGT compared with HFD group, FIG. 8",elevation of SOD expression
same,level of MDA decreased by Ergothioneine to,"[5]; broadest of the nested bounds printed (15, 13, 12, 11, 10, 8)",≤ 15 nmol/mL
same,level of SOD increased by Ergothioneine to,"[5]; broadest of the nested bounds printed (45, 48, 50, 51, 52, 55)",≥ 45 U/mL
same,toxicity or adverse effects associated with administration,[6],no toxicity or adverse effects
